# Experimental data from PMC6008491, “Discovery of a novel allosteric inhibitor scaffold for polyadenosine-diphosphate-ribose polymerase 14 (PARP14) macrodomain 2” (Bioorganic & Medicinal Chemistry, 2018).
# Molecular target: T1, PARP14 MD2 (Homo sapiens, UniProt Q460N5)
# T1 sequence (Q460N5 1003-1190 limits assumed): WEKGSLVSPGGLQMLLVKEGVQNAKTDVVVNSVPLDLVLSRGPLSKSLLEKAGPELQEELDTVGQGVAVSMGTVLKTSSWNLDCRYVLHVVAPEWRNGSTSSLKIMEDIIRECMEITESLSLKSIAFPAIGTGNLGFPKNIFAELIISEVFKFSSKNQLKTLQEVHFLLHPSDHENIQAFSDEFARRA
# Experiment: AlphaScreen competitive binding assay, displacement of ADP-ribose peptide from PARP14 MD2
# Set-up: PARP14 MD2 (second MD of PARP14)
# Details: not given
# Text: Compounds were profiled for binding activity with PARP14 MD2 through a competitive (AlphaScreen™) binding assay measuring the displacement of ADP-ribose peptide from PARP14 MD2.[11a]
row,inhibition of PARP14 MD2 (in words),SMILES
1,inactive,"CC(=O)Nc1ccccc1-c1cccc2c(=O)c3ccccc3[nH]c12 [compound 33, N-[2-(9-Oxo-9,10-dihydroacridin-4-yl)phenyl]acetamid]"

# Same assay, conditions: Table 1; AlphaScreen, PARP14 MD2; read-out: IC50
row,SMILES,IC50 [µM]
1,"CCN(C(C)=O)c1ccccc1-c1cccc2c1[nH]c1ccccc12 [compound 54, N-[2-(9H-Carbazol-1-yl)phenyl]-N-ethylacetamide]",> 50
2,"CCCCC(=O)Nc1ccccc1-c1cccc2c1[nH]c1ccccc12 [compound 68, N-(2-(9H-carbazol-1-yl)phenyl)pentanamide]",> 50
3,"Cc1cccc(N)c1-c1cccc2c1[nH]c1ccccc12 [compound 61, 2-(9H-Carbazol-1-yl)-3-methylaniline]",> 50
4,"O=C(Nc1ccccc1-c1cccc2c1[nH]c1ccccc12)C1CCCCC1 [compound 75, N-(2-(9H-carbazol-1-yl)phenyl)cyclohexanecarboxamide]",> 50
5,"Cc1oncc1S(=O)(=O)Nc1ccccc1-c1cccc2c1[nH]c1ccccc12 [compound 70, N-(2-(9H-Carbazol-1-yl)phenyl)-5-methylisoxazole-4-sulfonamide]",> 50
6,"Nc1ccc(C(F)(F)F)cc1-c1cccc2c1[nH]c1ccccc12 [compound 60, 2-(9H-Carbazol-1-yl)-4-(trifluoromethyl)aniline]",> 50

# More lines, now with the values ahead:
row,IC50 [µM],SMILES
1,> 50,"O=S(=O)(Nc1ccccc1-c1cccc2c1[nH]c1ccccc12)c1ccccc1 [compound 72, N-(2-(9H-Carbazol-1-yl)phenyl)benzenesulfonamide]"
2,1.1 ± 0.1,"Cc1ccc(-c2cccc3c2[nH]c2ccccc23)c(NS(C)(=O)=O)c1 [compound 55, N-(2-(9H-Carbazol-1-yl)-5-methylphenyl)methanesulfonamide]"
3,12.7 ± 1.5,"COc1cccc(C(=O)Nc2ccccc2-c2cccc3c2[nH]c2ccccc23)c1 [compound 81, N-(2-(9H-Carbazol-1-yl)phenyl)-3-methoxybenzamide]"
4,7.2 ± 1.4,"CC(C)(C)NC(=O)Nc1ccccc1-c1cccc2c1[nH]c1ccccc12 [compound 49, 1-[2-(9H-Carbazol-1-yl)phenyl]-3-(tert-butyl)urea]"

# Same assay, conditions: Table 2; AlphaScreen, PARP14 MD2; read-out: IC50
row,SMILES,IC50 [µM]
1,"N#Cc1ccc(CS(=O)(=O)Nc2ccccc2-c2cccc3c2[nH]c2ccccc23)cc1 [compound 95, N-(2-(9H-Carbazol-1-yl)phenyl)-1-(4-cyanophenyl)methanesulfonamide]",6.2 ± 0.6
2,"O=C(Cc1ccc(F)cc1)Nc1ccccc1-c1cccc2c1[nH]c1ccccc12 [compound 93, N-(2-(9H-Carbazol-1-yl)phenyl)-2-(4-fluorophenyl)acetamide]",> 50
3,"Cc1ccc(CC(=O)Nc2ccccc2-c2cccc3c2[nH]c2ccccc23)cc1 [compound 92, N-(2-(9H-Carbazol-1-yl)phenyl)-2-(p-tolyl)acetamide]",8.7 ± 1.2
4,"O=C(Cc1cccc(F)c1)Nc1ccccc1-c1cccc2c1[nH]c1ccccc12 [compound 104, N-(2-(9H-Carbazol-1-yl)phenyl)-2-(3-fluorophenyl)acetamide]",4.2 ± 0.3

# Other lines, results leading:
row,IC50 [µM],SMILES
1,6.6 ± 0.4,"O=C(Cc1ccc(=O)[nH]c1)Nc1ccccc1-c1cccc2c1[nH]c1ccccc12 [compound 88, N-(2-(9H-Carbazol-1-yl)phenyl)-2-(6-oxo-1,6-dihydropyridin-3-yl)acetamide]"
2,4.3 ± 0.3,"COc1ccc(CC(=O)Nc2ccccc2-c2cccc3c2[nH]c2ccccc23)cc1OC [compound 98, N-(2-(9H-Carbazol-1-yl)phenyl)-2-(3,4-dimethoxyphenyl)acetamide]"

# Same assay, conditions: text and figures; read-out: PARP14 MD2 IC50
row,IC50 [µM],SMILES
1,> 50,CC(=O)Nc1ccccc1-c1cn2c3ccccc3c3ccnc(c1=O)c32 [compound 19]
2,> 50,"CC(=O)Nc1ccccc1-c1cccc2c1oc1ccccc12 [compound 26, N-[2-(Dibenzofuran-4-yl)phenyl]acetamide]"
3,> 50,"CC(=O)Nc1ccccc1-c1cccc2c3ccccc3n(C)c12 [compound 24, N-[2-(9-Methyl-9H-carbazol-1-yl)phenyl]acetamide]"
4,> 50,"CC(=O)Nc1ccccc1-c1cccc2c1C(=O)c1ccccc1-2 [compound 28, N-[2-(9-Oxo-9H-fluoren-1-yl)phenyl]acetamide]"
